According to patent publication US20140243422A1, “METHODS OF TREATING BEHAVIORAL AND PSYCHIATRIC DISORDERS” (ELAN PHARMACEUTICALS, INC., priority 2011, published 2014):

Legend:
CSF Abeta42 = test: Phase 2 trial: cerebrospinal fluid Abeta42; type: in vivo, human; settings: 250 mg bid; statistically significant
Description: The effect of the 250 mg dose on cerebrospinal fluid (CSF) Abeta42 reduction (˜27% compared to baseline) was statistically significant, but the higher doses seemed to provide further Abeta42 reduction. Despite the dose-dependent effects of scyllo-inositol on CSF Abeta42, the 2 high doses consistently produced smaller effects on clinical endpoints than the 250 mg dose. This observed dissociation between the dose-dependent effects on CSF Abeta42 and the clinically measured NPI outcomes supports the concept that scyllo Inositol clinical effects are mediated by two distinct mechanisms. These mechanisms include: 1. reduction of brain amyloid load and resulting synaptic toxicity which has previously been disclosed affect memory and reasoning/problem solving, but not NPS, and 2. down-regulation of brain myo-inositol levels with secondary salutary effects on neuronal function (Machado-Vieira et al. 2009). The only other MRS studies measuring in vivo brain levels of myo-inositol and scyllo-inositol after scyllo-inositol administration were in transgenic mice. (Choi, et al. 2010, Neuropharmacology, 59(4-5): 353-357). […] The details of the Phase 2 data are described below.

[1] = test system: patients with mild to moderate AD (MMSE 16-26); test: Phase 2 trial: Neuropsychiatric Inventory (NPI-12) scores, cluster scores and emergence of new NPS; type: in vivo, human
Description: Several scales have been used for the assessment of BPSD. These include scales that have been specifically designed for studying NPS in patients with dementia, such as the “Behavioral Pathology in AD Rating Scale” (BEHAVE-AD, Reisberg et al. BEHAVE-AD: A clinical rating scale for the assessment of pharmacologically remediable behavioral symptomatology in Alzheimer's disease. In: Altman H J, editor. Alzheimer's Disease: Problems, prospects, and perspectives. Plenum; New York: 1987. pp. 1-161996), CERAD behavior rating scale for dementia (BRSD, Tariot 1996, International Psychogeriatrics, 8(Suppl. 3):317-320), and the Neuropsychiatric Inventory (NPI, Cummings et al. 1994, Neurology. 1994; 44:2308-14). The NPI which was designed to evaluate the broad range of behavioral symptoms that may develop in dementia patients, is a well validated instrument and has been widely used in BPSD studies and in AD treatment trials. The original version assessed 10 symptoms or items, including: delusions, hallucinations, agitation/aggression, depression/dysphoria, anxiety, apathy, irritability, euphoria/elation, disinhibition, and aberrant motor behavior; and was subsequently updated to include appetite changes and nighttime behaviors (sleep disturbances). The NPI is administered by a trained individual as a structured interview with the patient's caregiver. Each item is assessed by a scripted screening question, and the frequency and severity of each item is scored from 0-4 (0: absent, 1: occasional or less than once per week to 4 occurs at least daily), and from 1-3 (1: mild or produces little distress in patient; 2: moderate or more disturbing to patient but can be re-directed by caregiver; and 3: severe or very disturbing to patient and difficult to re-direct). The total item-score is then derived from frequency multiplied by the severity score; and the total NPI score (NPI-T) is derived from addition of all item scores, with the range of scores being from 0 (no NPS at all) to 144 (all 12 NPS are present at maximum severity at daily basis). In the majority of the drug trials in Mild/Moderate AD, the mean total NPI scores are ˜10-12 at baseline. The Phase 2 study described in the example below utilized the NPI-12 item assessment; and the mean total NPI scores were between 8 and 10 at baseline. This baseline severity is slightly lower than the range reported in many Mild to Moderate AD trials reported in the literature.
In a Phase 2, parallel arm, dose-ranging, placebo-controlled, double-blind, multicenter trial in patients with mild to moderate AD (MMSE 16-26), scyllo-inositol was administered to study subjects in immediate release tablets twice daily at the dosage level set for each study arm or identical-appearing placebo tablets were administered in the control arm. […] The study included neuropsychological assessments using the NPI-12 item scale, as well as assessments of scyllo-Inositol (SI) and myo-inositol (MI) brain levels using magnetic resonance spectroscopy (MRS).
The present study was a dose ranging study in Mild and Moderate AD patients (defined as having MMSE scores of 16-26 inclusive), and included 3 doses of scyllo-insoitol given bid (250 mg, 1000 mg, and 2000 mg) and placebo. The study was of 78 weeks duration and enrolled a total of 353 patients, and 351 received study drug (safety population). Due to safety findings in the 2 highest dose groups, these 2 groups were discontinued and the study's final efficacy analysis was based only on the 250 mg and placebo groups. […] In the overall study population, total randomized to all 4 dose groups=353, total that received study drug=351 (safety population, at any dose). For placebo and 250 mg group, the overall m-ITT (modified intent-to-treat)=166, overall PPS (per protocol set)=96.
A potentially disease-modifying drug, by altering regional neuronal dysfunction, may prevent or delay the emergence of abnormal behaviors as quantified by the NPI outcomes. […]

[2] = 250 mg bid vs placebo, Mild AD, m-ITT

For `O[C@H]1[C@H](O)[C@@H](O)[C@H](O)[C@@H](O)[C@@H]1O` [scyllo-inositol], the “CSF Abeta42 reduction compared to baseline” value (CSF Abeta42) was 27%, the “Score Difference (Summary Statistics), Affective Syndrome (6 symptoms)” value ([1]; 250 mg bid vs placebo, Mild AD MMSE 22-26, m-ITT) was “+3.47” and the “Score Difference (MMRM), Affective Syndrome (Depression, Anxiety, Agitation, Nighttime Behavior, Appetite Changes, Apathy)” value ([1]; 250 mg bid vs placebo, Mild AD MMSE 22-26, m-ITT, factor-analysis cluster) was “+1.36”. The “Score Difference (MMRM), Apathy” value [1, 2] was −0.35, the “Score Difference (MMRM), Behavioral cluster: Aberrant Motor/Nighttime Behaviors” value [1, 2] was “+0.05” and the “Score Difference (MMRM), Frontal cluster: Elation and Disinhibition” value [1, 2] was “+0.33”. The “Score Difference (MMRM), Psychotic cluster: Delusions and Hallucinations” value [1, 2] was −0.29, the “Score Difference (MMRM), Affective: Depression and Anxiety” value ([1]; 250 mg bid vs placebo, Moderate AD MMSE 16-21, m-ITT) was “+0.94” and the “improvement of Affective Syndrome score change compared to placebo group, by MMRM” value ([1]; 250 mg bid, Mild AD MMSE 22-26) was 35%. For the same compound, the “improvement of Affective Syndrome score change compared to placebo group, by summary statistics” value ([1]; 250 mg bid, Mild AD MMSE 22-26) was 91%, the “NPI total score benefit compared to placebo” value ([1]; 250 mg bid, Mild MMSE 22-26, m-ITT, 78 weeks) was 44% and the “NPI total score numerical difference from placebo” value ([1]; 250 mg bid, Mild MMSE 22-26, m-ITT, 78 weeks, not statistically significant) was roughly 2 points. For the same compound, the “proportion of patients who developed at least 2 new symptoms, lower versus placebo” value ([1]; 250 mg bid, Mild m-ITT MMSE 22-26, over 78 weeks, p<0.05) was 21.5%, the “NPI total score improvement versus placebo” value ([1]; 250 mg bid, Moderate MMSE 16-21, PP analysis) was roughly 50% and the “NPI total score, better than placebo” value ([1]; 250 mg bid, Moderate MMSE 16-21, PP analysis, 78 weeks, not statistically significant) was roughly 4 points. The “NPI total score versus placebo” value ([1]; 250 mg bid, Moderate MMSE 16-21, m-ITT analysis) was “did not show significant differences from placebo”, the “proportion of patients who developed at least 2 new symptoms, lower versus placebo” value ([1]; 250 mg bid, Moderate m-ITT MMSE 16-21, over 78 weeks, p=0.33) was 12.4% and the “proportion of patients who developed at least 4 new symptoms, lower versus placebo” value ([1]; 250 mg bid, Moderate m-ITT MMSE 16-21, over 78 weeks, p=0.34) was 12.1%. The “increase in prevalence of irritability, baseline to end of study” value ([1]; 250 mg group, Mild, week 78) was 10%, the “prevalence of apathy, anxiety, agitation, appetite and sleep change, baseline to end of study” value ([1]; 250 mg group, Mild, week 78) was “remained stable” and the “emergence of depression, anxiety, appetite change, agitation and apathy at any time during the study” value ([1]; 250 mg, Mild MMSE 22-26) was “decreases the emergence”. For the same compound, the “emergence of NPS at any time during the study” value ([1]; 250 mg, Moderate MMSE 16-21) was “decreased emergence of most NPS”, the emergence of irritability ([1]; 250 mg, Moderate MMSE 16-21) was “more prevalent with treatment” and the “Score Difference (MMRM), Affective: Depression and Anxiety” value ([1]; Moderate AD, PPS) was “+1.07”. The “Score Difference (MMRM), Apathy” value ([1]; Moderate AD, PPS) was “+0.14”, the “Score Difference (MMRM), Behavioral: Aberrant Motor, Nighttime Behaviors” value ([1]; Moderate AD, PPS) was “+1.42” and the “Score Difference (MMRM), Frontal: Elation and Disinhibition” value ([1]; Moderate AD, PPS) was “+0.68”. The “Score Difference (MMRM), Psychotic: Delusions and Hallucinations” value ([1]; Moderate AD, PPS) was “+1.32”, the “Score Difference (summary statistics), Affective: Depression and Anxiety” value ([1]; Moderate AD, PPS) was “+0.06” and the “Score Difference (summary statistics), Apathy” value ([1]; Moderate AD, PPS) was “+0.68”. The “Score Difference (summary statistics), Behavioral: Aberrant Motor, Nighttime Behaviors” value ([1]; Moderate AD, PPS) was “+1.96”, the “Score Difference (summary statistics), Frontal: Elation and Disinhibition” value ([1]; Moderate AD, PPS) was “+0.53” and the “Score Difference (summary statistics), Psychotic: Delusions and Hallucinations” value ([1]; Moderate AD, PPS) was “+0.71”. The “Score Difference (MMRM), Apathy” value ([1]; Moderate AD, m-ITT) was “+0.97”, the “Score Difference (MMRM), Behavioral: Aberrant Motor, Nighttime Behaviors” value ([1]; Moderate AD, m-ITT) was “+0.11” and the “Score Difference (MMRM), Frontal: Elation and Disinhibition” value ([1]; Moderate AD, m-ITT) was “+0.56”. For the same compound, the “Score Difference (MMRM), Psychotic: Delusions and Hallucinations” value ([1]; Moderate AD, m-ITT) was −0.52, the “Score Difference (summary statistics), Affective: Depression and Anxiety” value ([1]; Moderate AD, m-ITT) was −0.15 and the “Score Difference (summary statistics), Apathy” value ([1]; Moderate AD, m-ITT) was “+1.09”. The “Score Difference (summary statistics), Behavioral: Aberrant Motor, Nighttime Behaviors” value ([1]; Moderate AD, m-ITT) was “+1.76”, the “Score Difference (summary statistics), Frontal: Elation and Disinhibition” value ([1]; Moderate AD, m-ITT) was “+0.48” and the “Score Difference (summary statistics), Psychotic: Delusions and Hallucinations” value ([1]; Moderate AD, m-ITT) was “+0.34”. The “emergence of depression and/or anxiety by plasma AUC quartile” value ([1]; plasma AUC corresponding to the 250 mg bid dose (second quartile)) was “significant decrease”.
